Test results as given in patent publication US20250381243A1, “HETEROCYCLES AND USES THEREOF” (Kumquat Biosciences Inc., priority 2022, published 2025).
Like-named read-outs stand apart in the source and are kept apart here.

Test system: A549 cells
Assay: Cell proliferation assay (CellTiter-Glo), cells with K-Ras G12S mutation
Assay type: cell-based
Conditions: Homo sapiens, read-out: Inhibition of A549 Cells (IC50)
Protocol: A549 (ATCC CRL-185) and LS123 (ATCC CRL-255) cell lines comprise a G12S mutation and can be used to assess Ras cellular signaling in vitro, e.g., in response to treatment with a compound described herein. A549 culture medium is prepared with RPMI-1640 and 10% heat-inactivated FBS. LS123 culture medium is prepared with RPMI-1640 and 10% heat-inactivated FBS. A CellTiter-Glo (CTG) luminescent based assay (Promega) is used to assess growth of the cells, as a measurement of the ability of the compounds herein to inhibit Ras signaling in the cells. The cells (e.g., 800 per well) are seeded in their respective culture medium in standard tissue culture-treated 384-well format plates (Falcon #08-772-116) or ultra-low attachment surface 384-well format plates (S-Bio #MS-9384WZ). The day after plating, cells are treated with a dilution series (e.g., a 10 point 3-fold dilution series) of the compounds herein (e.g., approximately 40 μl final volume per well). Cell viability can be monitored (e.g., approximately 6 days later) according to the manufacturer's recommended instructions, where CellTiter-Glo reagent is added (e.g., approximately 10 μl), vigorously mixed, covered, and placed on a plate shaker (e.g., approximately for 20 min) to ensure sufficient cell lysis prior to assessment of luminescent signal. The IC50 values are determined using the four parameter fit. The resulting IC50 value is a measurement of the ability of the test compound to reduce cell growth of Ras-driven cells (e.g., tumor cell lines) in vitro and/or in vivo.

Compound | IC50 (≤500 nM) | IC50 (500 nM to 5 μM (mixed units))
N#Cc1c(N)sc2c(F)ccc(-c3c(Cl)cc4c(N5CCC6(C5)CN(C(=O)n5cncn5)C6C5CC5)nc(OC[C@@]56CCCN5C[C@H](F)C6)nc4c3F)c12 (single isomer, unassigned) [Compound 203] | ≤ 500 nM | 
N#Cc1c(N)sc2c(F)ccc(-c3c(Cl)cc4c(N5CCCC(N(C(=O)n6cnc(Cl)n6)C6CC6)C5)nc(OC[C@@]56CCCN5C[C@H](F)C6)nc4c3F)c12 (stereo partly drawn) [Compound 151, N-(1-(7-(2-amino-3-cyano-7-fluorobenzo[b]thiophen-4-yl)-6-chloro-8-fluoro-2-(((2R,7aS)-2-fluorotetrahydro-1H-pyrrolizin-7a(5H)-yl)methoxy)quinazolin-4-yl)piperidin-3-yl)-3-chloro-N-cyclopropyl-1H-1,2,4-triazole-1-carboxamide] |  | 500 to 5000 nM
COCC1([C@H]2N(C(=O)n3cnc(F)n3)C[C@]23CC[C@H](C)N(c2nc(OC[C@@]45CCCN4C[C@H](F)C5)nc4c(F)c(-c5ccc(F)c6sc(N)c(C#N)c56)c(Cl)cc24)C3)CC1 [Compound 129, 2-amino-4-(6-chloro-8-fluoro-4-((1S,4R,7S)-2-(3-fluoro-1H-1,2,4-triazole-1-carbonyl)-1-(1-(methoxymethyl)cyclopropyl)-7-methyl-2,6-diazaspiro[3.5]nonan-6-yl)-2-(((2R,7aS)-2-fluorotetrahydro-1H-pyrrolizin-7a(5H)-yl)methoxy)quinazolin-7-yl)-7-fluorobenzo[b]thiophene-3-carbonitrile] | ≤ 500 nM | 
COCC1([C@@H]2[C@H](CN(C)c3nc(OC[C@@]45CCCN4C[C@H](F)C5)nc4c(F)c(-c5ccc(F)c6sc(N)c(C#N)c56)c(Cl)cc34)CN2C(=O)n2cnc(F)n2)CC1 [Compound 120, 2-amino-4-(6-chloro-8-fluoro-4-((((2S,3R)-1-(3-fluoro-1H-1,2,4-triazole-1-carbonyl)-2-(1-(methoxymethyl)cyclopropyl)azetidin-3-yl)methyl)(methyl)amino)-2-(((2R,7aS)-2-fluorotetrahydro-1H-pyrrolizin-7a(5H)-yl)methoxy)quinazolin-7-yl)-7-fluorobenzo[b]thiophene-3-carbonitrile] | ≤ 500 nM | 
CN(C[C@@H]1CN(C(=O)n2cnc(F)n2)[C@@H]1C1(CF)CC1)c1nc(OC[C@@]23CCCN2C[C@H](F)C3)nc2c(F)c(-c3ccc(F)c4sc(N)c(C#N)c34)c(Cl)cc12 [Compound 148, 2-amino-4-(6-chloro-8-fluoro-4-((((2S,3R)-1-(3-fluoro-1H-1,2,4-triazole-1-carbonyl)-2-(1-(fluoromethyl)cyclopropyl)azetidin-3-yl)methyl)(methyl)amino)-2-(((2R,7aS)-2-fluorotetrahydro-1H-pyrrolizin-7a(5H)-yl)methoxy)quinazolin-7-yl)-7-fluorobenzo[b]thiophene-3-carbonitrile] | ≤ 500 nM | 
CN(C(=O)n1cnc(Cl)n1)C1CCN(c2nc(OC[C@@]34CCCN3C[C@H](F)C4)nc3c(F)c(-c4ccc(F)c5sc(N)c(C#N)c45)c(Cl)cc23)C1(C)C (single isomer, unassigned) [Compound 198] | ≤ 500 nM | 
N#Cc1c(N)sc2c(F)ccc(-c3c(Cl)cc4c(N5CCCC6(C5)CN(C(=O)n5cncn5)C6C5CC5)nc(OC[C@@]56CCCN5C[C@H](F)C6)nc4c3F)c12 (stereo partly drawn) [Compound 127, 2-amino-4-(6-chloro-4-(1-cyclopropyl-2-(1H-1,2,4-triazole-1-carbonyl)-2,6-diazaspiro[3.5]nonan-6-yl)-8-fluoro-2-(((2R,7aS)-2-fluorotetrahydro-1H-pyrrolizin-7a(5H)-yl)methoxy)quinazolin-7-yl)-7-fluorobenzo[b]thiophene-3-carbonitrile] | ≤ 500 nM | 
CC(C)[C@H]1N(C(=O)n2cnc(F)n2)C[C@]12CC(CC#N)CN(c1nc(OC[C@@]34CCCN3C[C@H](F)C4)nc3c(F)c(-c4ccc(F)c5sc(N)c(C#N)c45)c(Cl)cc13)C2 (stereo partly drawn) [Compound 235, 2-amino-4-(6-chloro-4-((1R,4R)-8-(cyanomethyl)-2-(3-fluoro-1H-1,2,4-triazole-1-carbonyl)-1-isopropyl-2,6-diazaspiro[3.5]nonan-6-yl)-8-fluoro-2-(((2R,7aS)-2-fluorotetrahydro-1H-pyrrolizin-7a(5H)-yl)methoxy)quinazolin-7-yl)-7-fluorobenzo[b]thiophene-3-carbonitrile] | ≤ 500 nM | 
CC1C(N(C)C(=O)n2cncn2)CCN1c1nc(OC[C@@]23CCCN2C[C@H](F)C3)nc2c(F)c(-c3ccc(F)c4sc(N)c(C#N)c34)c(Cl)cc12 (stereo partly drawn) [Compound 125, N-(1-(7-(2-amino-3-cyano-7-fluorobenzo[b]thiophen-4-yl)-6-chloro-8-fluoro-2-(((2R,7aS)-2-fluorotetrahydro-1H-pyrrolizin-7a(5H)-yl)methoxy)quinazolin-4-yl)-2-methylpyrrolidin-3-yl)-N-methyl-1H-1,2,4-triazole-1-carboxamide] | ≤ 500 nM | 
CC1([C@H]2N(C(=O)n3cnc(F)n3)C[C@]23CCCN(c2nc(OC[C@@]45CCCN4C[C@H](F)C5)nc4c(F)c(-c5ccc(F)c6sc(N)c(C#N)c56)c(Cl)cc24)C3)CC1 [Compound 216, 2-amino-4-(6-chloro-8-fluoro-4-((1R,4R)-2-(3-fluoro-1H-1,2,4-triazole-1-carbonyl)-1-(1-methylcyclopropyl)-2,6-diazaspiro[3.5]nonan-6-yl)-2-(((2R,7aS)-2-fluorotetrahydro-1H-pyrrolizin-7a(5H)-yl)methoxy)quinazolin-7-yl)-7-fluorobenzo[b]thiophene-3-carbonitrile] | ≤ 500 nM | 
CC(C)[C@H]1N(C(=O)n2cnc(Cl)n2)C[C@]12C[C@@H](CC#N)CN(c1nc(OC[C@@]34CCCN3C[C@H](F)C4)nc3c(F)c(-c4ccc(F)c5sc(N)c(C#N)c45)c(Cl)cc13)C2 [Compound 137, 2-amino-4-(6-chloro-4-((1R,4R,8S)-2-(3-chloro-1H-1,2,4-triazole-1-carbonyl)-8-(cyanomethyl)-1-isopropyl-2,6-diazaspiro[3.5]nonan-6-yl)-8-fluoro-2-(((2R,7aS)-2-fluorotetrahydro-1H-pyrrolizin-7a(5H)-yl)methoxy)quinazolin-7-yl)-7-fluorobenzo[b]thiophene-3-carbonitrile] | ≤ 500 nM | 
CC(C)[C@H]1N(C(=O)n2cnc(O)n2)C[C@]12CCCCN(c1nc(OC[C@@]34CCCN3C[C@H](F)C4)nc3c(F)c(-c4ccc(F)c5sc(N)c(C#N)c45)c(Cl)cc13)C2 [Compound 224, 2-amino-4-(6-chloro-8-fluoro-2-(((2R,7aS)-2-fluorotetrahydro-1H-pyrrolizin-7a(5H)-yl)methoxy)-4-((1R,4R)-2-(3-hydroxy-1H-1,2,4-triazole-1-carbonyl)-1-isopropyl-2,6-diazaspiro[3.6]decan-6-yl)quinazolin-7-yl)-7-fluorobenzo[b]thiophene-3-carbonitrile] | ≤ 500 nM | 
CC(C)[C@H]1N(C(=O)n2cnc(Cl)n2)C[C@]12CCCN(c1nc(OC[C@@]34CCCN3C[C@H](F)C4)nc3c(F)c(-c4ccc(F)c5sc(N)c(C#N)c45)c(Cl)cc13)C2 [Compound 190, 2-amino-4-(6-chloro-4-((1R,4R)-2-(3-chloro-1H-1,2,4-triazole-1-carbonyl)-1-isopropyl-2,6-diazaspiro[3.5]nonan-6-yl)-8-fluoro-2-(((2R,7aS)-2-fluorotetrahydro-1H-pyrrolizin-7a(5H)-yl)methoxy)quinazolin-7-yl)-7-fluorobenzo[b]thiophene-3-carbonitrile] | ≤ 500 nM | 
CC1N(C(=O)n2cncn2)CC12CCCN(c1nc(OC[C@@]34CCCN3C[C@H](F)C4)nc3c(F)c(-c4ccc(F)c5sc(N)c(C#N)c45)c(Cl)cc13)C2 (stereo partly drawn) [Compound 182, 2-amino-4-(6-chloro-8-fluoro-2-(((2R,7aS)-2-fluorotetrahydro-1H-pyrrolizin-7a(5H)-yl)methoxy)-4-(1-methyl-2-(1H-1,2,4-triazole-1-carbonyl)-2,6-diazaspiro[3.5]nonan-6-yl)quinazolin-7-yl)-7-fluorobenzo[b]thiophene-3-carbonitrile] | ≤ 500 nM | 
CC(C)[C@H]1N(C(=O)n2cnc(F)n2)C[C@]12CC[C@H](C)N(c1nc(OC[C@@]34CCCN3C[C@H](F)C4)nc3c(F)c(-c4ccc(F)c5sc(N)c(C#N)c45)c(Cl)cc13)C2 [Compound 213, 2-amino-4-(6-chloro-8-fluoro-4-((1R,4R,7S)-2-(3-fluoro-1H-1,2,4-triazole-1-carbonyl)-1-isopropyl-7-methyl-2,6-diazaspiro[3.5]nonan-6-yl)-2-(((2R,7aS)-2-fluorotetrahydro-1H-pyrrolizin-7a(5H)-yl)methoxy)quinazolin-7-yl)-7-fluorobenzo[b]thiophene-3-carbonitrile] | ≤ 500 nM | 
CC(C)[C@@H]1[C@H](CN(C)c2nc(OC[C@@]34CCCN3C[C@H](F)C4)nc3c(F)c(-c4ccc(F)c5sc(N)c(C#N)c45)c(Cl)cc23)CN1C(=O)n1cnc(C#N)n1 (atropisomer, axis not shown; (aS)) [Compound 162, 1-((2R,3R)-3-(((7-((R)-2-amino-3-cyano-7-fluorobenzo[b]thiophen-4-yl)-6-chloro-8-fluoro-2-(((2R,7aS)-2-fluorotetrahydro-1H-pyrrolizin-7a (5H)-yl)methoxy)quinazolin-4-yl)(methyl)amino)methyl)-2-isopropylazetidine-1-carbonyl)-1H-1,2,4-triazole-3-carbonitrile] | ≤ 500 nM | 
